Test results as given in patent publication US20170296545A1, “Composition Of A Ceramic Matrix With A Controlled Release Drug, A Tablet Obtained From The Composition And Methods For Obtaining The Composition And The Tablet” (priority 2009, published 2017).
Read-outs that look alike come from different tables or passages of the source.

Legend:
[1] = cited from earlier work
Wistar rats [2] = settings: rat, in vivo
Protocol: In the slices of the liver of the Wistar rats, it was evaluated the presence of hepatic necrosis, proliferation of biliary ducts, proliferation of fibrous conjunctive tissue, and blood extravasation (Cunha, et. al., 2009).

Wistar rats [3] = settings: rat, in vivo; remark: listed apart in the source
Protocol: The tests were performed according to Organization for Economic Cooperation and development OECD 423 guide. The methodology consisted of toxicity by evaluating and analyzing of the biochemical and histopathological parameters which resulted from administration thereof.

| Molecule | solubility in acid or diluted alkaline solutions ([1]; acid or diluted alkaline solutions) | solubility in alcohol ([1]; alcohol) | solubility in water ([1]; water) | histopathological evaluation of the liver (Wistar rats [2]; 50 mg/kg) | histopathological evaluation of the liver (Wistar rats [2]; 300 mg/kg) | histopathological evaluation of the liver (Wistar rats [2]; 2000 mg/kg) | histopathological evaluation of the livers (Wistar rats [2]; po) | macroscopic tests of the organs (Wistar rats [2]; po) | short-term repeated-dose toxicity (Wistar rats [3]) |
| --- | --- | --- | --- | --- | --- | --- | --- | --- | --- |
| Nc1nc2c(ncn2COCCO)c(=O)[nH]1 [acyclovir] | only slight soluble | insoluble | poorly soluble | – | – | – | – | – | – |
| pseudoboehmite | – | – | – | tissue integrity | a sinusoidal congestion was detected | tissue integrity | there were not observed any changes in the tissue integrity or apparent injuries | No abnormal changes | low |
